Marks after values point to notes of the source that are not given here. Ends that are not written are not given here.
Tests used:
E. coli [1] = assay: MIC, broth microdilution assay in polypropylene microtiter trays; type: cell-based; conditions: average of three separate experiments
How it was run: (§1)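 Each peptide's inhibitory endpoint is based on optical density: absence of any OD change for the chosen duration defines the minimal inhibitory concentration.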

P. aeruginosa = assay: as above; type: cell-based; conditions: average of three separate experiments
How it was run: as §1

S. aureus K147 = assay: as above; type: cell-based; conditions: average of three separate experiments
How it was run: as §1

S. aureus = assay: as above; type: cell-based; conditions: average of three separate experiments
How it was run: as §1

S. epidermis = assay: as above; type: cell-based; conditions: average of three separate experiments
How it was run: as §1

[2] = tested on: mutant (Nal B, H744) of P. aeruginosa; assay: microbe, parasite or virus in culture; type: cell-based
How it was run: (§2)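 Checkerboard titration in Mueller Hinton broth, peptide against carbenicillin or ciprofloxacin, inoculum 10 μl of 10^−4 dilution of overnight culture, 18-24 h at 37 °C. Combination MIC is the lowest concentration reducing growth >50%. FIC index = A/MIC A + B/MIC B, with ≤~0.5 synergy, 1.0 additivity, >1.0 antagonism.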

[3] = tested on: β-lactamase derepressed mutant (H547) of P. aeruginosa; assay: microbe, parasite or virus in culture; type: cell-based; conditions: P. aeruginosa H547
How it was run: as §2

E. coli [4] = assay: Synergy study (checkerboard titration) with hen white lysozyme; type: cell-based
P. aeruginosa (H103) = assay: as above; type: cell-based
Salmonella typhi = assay: as above; type: cell-based
[5] = Lethal endotoxemia in galactosamine-sensitized mice; type: in vivo, CD-1 mice; conditions: peptide 200 μg intraperitoneal within 10 min of 10 μg LPS; 24 hours post injection; 5 mice per group; no peptide 100
Method: To confirm this in vivo, endotoxic shock was induced by intraperitoneal injection of 10 μg of E.coli 0111:B4 LPS in phosphate-buffered saline (PBS; pH 7.2) into galactosamine-sensitized 8- to 10- week old female CD-1 mice (5 per group). In experiments involving peptides, 200 μg in 100 μl of sterile water was injected at separate intraperitoneal sites within 10 min of LPS injection. Survival was monitored at 24 hours post injection.

[6] = tested on: Pseudomonas aeruginosa strain M2; assay: Protection of neutropenic CD-1 mice challenged with Pseudomonas aeruginosa; type: in vivo; design: Survival post bacterial challenge, surviving mice: reference not given here; conditions: for Survival (%) post bacterial challenge: PBS 8
How it was run: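 Neutropenia induced by three i.p. cyclophosphamide doses ([…], alternate days); mice then infected i.p. with 200-300 organisms/mouse. Peptides (200 µg/mouse = 8 mg/kg) in buffered citrate given i.p. at 30 min (single) or 30 min and 16 hrs (double) post-challenge; PBS control; mean of 2 experiments.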

[7] = tested on: Pseudomonas aeruginosa PAO; assay: Chronic Pseudomonas aeruginosa lung infection in rats, aerosol treatment; type: in vivo; conditions: lungs, quantitative culture; aerosol 10 ml of 5 mg/ml once daily for three days; untreated control 1.2 × 10^6
Method: Fifteen animals were utilized in these experiments (5 animals in each of three groups). All animals were inoculated intratracheal with 10^4 Pseudomonas aeruginosa PAO in agar beads. Three days following inoculation, rats were exposed to aerosol preparations from and Aero-Tech II nebulizer (CIS-US, Bedford, Mass.). The nebulizer was operated at 45 psi, with a flow rate of 10 L/min and contained 10 ml of the preparation to be aerosolized. The 10 ml volume was dispensed in 25-30 minutes. Animals were treated once daily for three days; control animals received daily exposure to 10 mls of 10 mM sodium citrate (pH 7.0); one treatment group received daily exposure to 10 mls of 10 mM sodium citrate (pH 7.0) containing 5 mg/ml of CM3; one treatment group received daily exposure to 10 mls of 10 mM sodium citrate (pH 7.0) containing 5 mg/ml of Cpα2. Animals were sacrificed on day 3, at one hour following the last exposure. The lungs of the treatment and control animals were removed for quantitative culture.

V. anguillarum [8] = assay: Protection of coho salmon, peptide delivered constantly by intraperitoneal mini-osmotic pump; type: in vivo, juvenile coho salmon; conditions: CEME by intraperitoneal mini-osmotic pump; control group 50%
Method: Constant delivery of peptide P-CN using intraperitoneal mini-osmotic pumps was carried out. Briefly, juvenile coho salmon were divided into three treatment groups: A. Bacterial injection alone (12 fish). B. Fish saline osmotic pump and bacterial injection (12 fish). C. A combination of P-CN osmotic pump and bacterial injection (19 fish). The fish were anaesthetized and implanted (peritoneal cavity) with mini-osmotic pumps having a pumping rate of 0.13 µl/hour. Heaters were placed in the tanks to keep the water temperature between 12 and 13° C. Pumps were filled with concentrated P-CN to deliver approximately […] peptide to fish over a 30-day period. Twelve days after pump implantation, the fish received intraperitoneal injections of V. anguillarum ([…]). Mortalities were first noticed on day 3 for the group injected with bacteria alone and on day 5 for the group which received saline osmotic pumps as well as bacterial injections. However, there was no significant difference in mortality between the bacterial injection alone group and the saline osmotic pump group (67% vs. 75%). Mortalities were delayed for the P-CN osmotic pump group. The P-CN osmotic pump group had only one fish die on day 6 over the 30 days experiments with an accumulated mortality of 5%. […] Furthermore, since cationic peptides are not effective in a single treatment and constant administration is necessary, this argues for the potential success of transgenic fish expressing peptide P-CN.
(§3) Fish loss from disease is a significant problem in aquaculture worldwide. However, expression of natural cationic peptide genes in fish could increase disease resistance because of continual cellular production of the antimicrobial peptides. In order to choose optimal peptides for transgenic fish, the antimicrobial activities of some cationic peptides were determined by testing minimum inhibitory concentrations (MICs) in vitro. […] The in vivo effect of CEME was examined by intraperitoneal injection of the peptide along with V. anguillarum into juvenile coho salmon. Fish in the bacteria alone control group had 60% mortality, while fish receiving peptide and bacteria injections had 82% mortality. […] Therefore, constant delivery of CEME and Pleurocidin-CN using intraperitoneal mini-osmotic pumps were carried out. Twelve days after pump implantation, the fish received intraperitoneal injections of V. anguillarum. The CEME and pleurocidin-CN pump group had longer survival time and lower mortalities than the control groups (50% Vs. 13%, and 75% Vs. 5%, respectively). Indolicidin transgenic cutthroat trout were made using a construct including an MT promoter, growth hormone signal, pre-region, indolicidin, and terminator. […]

V. anguillarum [9] = assay: Single intraperitoneal injection of peptide along with V. anguillarum into juvenile coho salmon; type: in vivo; conditions: single injection of peptide along with bacteria; bacteria alone control 60%
Method: as §3, with “terminator. Transgenic individuals were identified by serum analysis using PCR with construct-specific oligonucleotide primers.” for “terminator.”

[10] = cationic peptide concentration, combined with lysozyme
[11] = lysozyme concentration, combined with the peptide

KWKKFIKSLTKSAAKTVVKTAKKPLIV [CM3]
MIC E. coli (E. coli [1]): 1 µg/mL | MIC P. aeruginosa (P. aeruginosa): 5 µg/mL | MIC S. aureus K147 (S. aureus K147): >64 µg/mL | MIC S. aureus (S. aureus): >64 µg/mL | MIC S. epidermis (S. epidermis): 16 µg/mL | MIC A MIC of Peptides ([2]; peptide alone, P. aeruginosa mutant Nal B, H744 (Table 5)): 2 µg/mL | (A) Peptide doses together with Cipro ([2]; peptide concentration in combination with ciprofloxacin, Nal B, H744): .5 µg/mL | (B) MIC of Carb when combined with peptide ([3]; Carbenicillin with peptide at concentration (A)): 32 µg/mL | FIC index ([3]; peptide + Carbenicillin, about 0.5 or less synergy, 1.0 additivity, >1.0 antagonism): 0.75 | MIC A MIC of Peptides ([3]; peptide alone): 2 µg/mL | (A) Peptide doses together with Carb ([3]; peptide concentration in combination with Carbenicillin): .5 µg/mL | FIC for combination of cationic peptide and lysozyme (E. coli [4]): 0.31 | Lowest [CP] showing synergy (E. coli [4]; [10]): 0.041 µg/mL | Lowest [Lyso] showing synergy (E. coli [4]; [11]): 15.6 µg/mL | FIC for combination of cationic peptide and lysozyme (P. aeruginosa (H103)): 0.50 | Lowest [CP] showing synergy (P. aeruginosa (H103); [10]): 1.3 µg/mL | Lowest [Lyso] showing synergy (P. aeruginosa (H103); [11]): 15.6 µg/mL | FIC for combination of cationic peptide and lysozyme (Salmonella typhi): 0.75 | Lowest [CP] showing synergy (Salmonella typhi; [10]): 2.61 µg/mL | Lowest [Lyso] showing synergy (Salmonella typhi; [11]): 250 µg/mL | Mortality (%) [5]: 80% | Survival post bacterial challenge, surviving mice ([6]; double dose (200 μg per mouse i.p. at 30 min and 16 hrs), 16 hr): 13 | Survival post bacterial challenge, surviving mice ([6]; double dose, 24 hr): 13 | Survival post bacterial challenge, surviving mice ([6]; double dose, 41 hr): 11 | Survival post bacterial challenge, surviving mice ([6]; double dose, 48 hr): 11 | Survival post bacterial challenge, surviving mice ([6]; double dose, 64 hr): 10 | Survival (%) post bacterial challenge ([6]; double dose, 64 hr): 76% | Survival post bacterial challenge, surviving mice ([6]; double dose, 72 hr): 10 | Survival (%) post bacterial challenge ([6]; double dose, 72 hr): 76% | Survival post bacterial challenge, surviving mice ([6]; double dose, 96 hr): 8 | Survival (%) post bacterial challenge ([6]; double dose, 96 hr): 61% | Survival post bacterial challenge, surviving mice ([6]; single dose (200 μg per mouse i.p. at 30 min), 16 hr): 15 | Survival post bacterial challenge, surviving mice ([6]; single dose, 24 hr): 15 | Survival post bacterial challenge, surviving mice ([6]; single dose, 41 hr): 14 | Survival post bacterial challenge, surviving mice ([6]; single dose, 48 hr): 13 | Survival post bacterial challenge, surviving mice ([6]; single dose, 64 hr): 12 | Survival (%) post bacterial challenge ([6]; single dose, 64 hr): 80% | Survival post bacterial challenge, surviving mice ([6]; single dose, 72 hr): 11 | Survival (%) post bacterial challenge ([6]; single dose, 72 hr): 73% | Survival post bacterial challenge, surviving mice ([6]; single dose, 96 hr): 11 | Survival (%) post bacterial challenge ([6]; single dose, 96 hr): 73% | Mean Colony Forming Units +/− S.D. [7]: 7.4 × 10^4 +/− 6.7 × 10^4* CFU

CC[C@H](C)[C@H](NC(=O)CNC(=O)[C@@H](NC(=O)[C@H](CCCCN)NC(=O)[C@H](CCCCN)NC(=O)[C@H](Cc1ccccc1)NC(=O)[C@H](CC(C)C)NC(=O)[C@H](CCCCN)NC(=O)[C@H](Cc1c[nH]c2ccccc12)NC(=O)[C@@H](N)CCCCN)[C@@H](C)CC)C(=O)NCC(=O)N[C@@H](C)C(=O)N[C@H](C(=O)N[C@@H](CC(C)C)C(=O)N[C@@H](CCCCN)C(=O)N[C@H](C(=O)N[C@@H](CC(C)C)C(=O)N[C@H](C(=O)N[C@H](C(=O)NCC(=O)N[C@@H](CC(C)C)C(=O)N1CCC[C@H]1C(=O)N[C@@H](C)C(=O)N[C@@H](CC(C)C)C(=O)N[C@H](C(=O)N[C@@H](CO)C(=O)O)[C@@H](C)CC)[C@@H](C)O)[C@@H](C)O)C(C)C)C(C)C [CEME, reference compound]
Mortality, pump group (V. anguillarum [8]): 13% | Mortality (V. anguillarum [9]): 82%

— US6818407B2, “Anti-endotoxic antimicrobial cationic peptides and methods of use therfor” (priority 1998, dated 2004)
